The values below come from patent US20250197391A1, “METHODS OF SYNTHESIZING EGFR INHIBITORS” (Scorpion Therapeutics, Inc., priority 2022, published 2025).

≈ marks a conversion by molar mass, not a printed value. Where “and” joins values, the source holds several entries; their conditions need not be identical. Identical values can stand only once.

Data set [1] in a line: Stability of process solutions / solid on drying over days (HPLC area %). The class given is physicochemical.
The nature of data set [2]: Solubility data in solvents. The settings on record: for solubility: organic solvent or mixture. Type of data set: physicochemical.

On to `COc1c(Cl)cccc1N=C=S` [Compound 1, 1-chloro-3-isothiocyanato-2-methoxybenzene], for which the “Area % after hold” value stood at 96.0 A % in data set [1] (IPAC solution, 40 ± 5 C., 1 d); 95.9 A % in data set [1] (IPAC solution, 40 ± 5 C., 2 d); 94.3 A % in data set [1] (IPAC solution, 40 ± 5 C., 3 d); 95.5 A % in data set [1] (IPAC solution, 50 ± 5 C., 1 d); 94.7 A % in data set [1] (IPAC solution, 50 ± 5 C., 2 d); 90.5 A % in data set [1] (IPAC solution, 50 ± 5 C., 3 d).

Regarding `COc1c(Cl)cccc1NC(=S)C1=C(O)CCN(C(=O)OC(C)(C)C)C1=O` [Compound 2, tert-butyl 5-((3-chloro-2-methoxyphenyl)carbamothioyl)-4-hydroxy-6-oxo-3,6-dihydropyridine-1(2H)-carboxylate], the solubility in data set [2] (solvent ACN) is 33 mg/mL (≈ 79.9 mM); in data set [2] (solvent DCM), above 200 mg/mL; in data set [2] (solvent EtOAc) it was 100 mg/mL (≈ 242 mM); in data set [2] (solvent EtOH), below 5 mg/mL; in data set [2] (solvent MTBE), 28 mg/mL (≈ 67.8 mM); in data set [2] (solvent MeOH), 5 mg/mL (≈ 12.1 mM). In addition, the solubility in data set [2] (solvent n-heptane) is below 5 mg/mL. Moreover, the “Area % after hold” value in data set [1] (IPAC solution pH = 5-6, 20 ± 5 C., 0 d) is 90.1 A %; in data set [1] (IPAC solution pH = 5-6, 20 ± 5 C., 1 d) it was 89.8 A %; in data set [1] (IPAC solution pH = 5-6, 20 ± 5 C., 3 d), 90.9 A %; in data set [1] (IPAC solution, 25 ± 5 C., 0 d), 87.3%; in data set [1] (IPAC solution, 25 ± 5 C., 1 d, listed as Comp. 2) it was 88.7% and 86.0%; in data set [1] (IPAC solution, 25 ± 5 C., 2 d, listed as Comp. 2) it was 86.5% and 85.6%. For the same compound, the “Area % after hold” value was 85.2% and 83.5% in data set [1] (IPAC solution, 25 ± 5 C., 3 d, listed as Comp. 2); 90.1 A % in data set [1] (IPAC solution, 40 ± 5 C., 0 d); 88.6 A % and 87.7 A % in data set [1] (IPAC solution, 40 ± 5 C., 1 d, listed as Comp. 2); 84.7 A % and 80.0% in data set [1] (IPAC solution, 40 ± 5 C., 3 d, listed as Comp. 2); 99.7 A % in data set [1] (on drying, 45 ± 5 C., 0 d); 99.8% in data set [1] (on drying, 45 ± 5 C., 3 d).

For `COc1c(Cl)cccc1Nc1c(-c2ccncc2Br)[nH]c2c1C(=O)N(C(=O)OC(C)(C)C)CC2` [Compound 101, tert-butyl 2-(3-bromopyridin-4-yl)-3-((3-chloro-2-methoxyphenyl)amino)-4-oxo-1,4,6,7-tetrahydro-5H-pyrrolo[3,2-c]pyridine-5-carboxylate], the solubility in data set [2] (solvent ACN) is 33 mg/mL (≈ 60.2 mM); in data set [2] (solvent DCM), above 125 mg/mL; in data set [2] (solvent EtOAc), 6.25 mg/mL (≈ 11.4 mM); in data set [2] (solvent EtOH) it was 6.25 mg/mL (≈ 11.4 mM); in data set [2] (solvent MTBE), 6.25 mg/mL (≈ 11.4 mM); in data set [2] (solvent MeOH), 7.1 mg/mL (≈ 13 mM). For the same compound, the solubility in data set [2] (solvent n-heptane) and in data set [2] (solvent toluene) was below 5 mg/mL in each case.

`COc1c(Cl)cccc1Nc1c(-c2ccncc2Br)[nH]c2c1C(=O)NCC2` [Compound 102, 2-(3-bromopyridin-4-yl)-3-((3-chloro-2-methoxyphenyl)amino)-1,5,6,7-tetrahydro-4H-pyrrolo[3,2-c]pyridin-4-one]: the “Dissolution in crystallization solvents” value in data set [2] (5 V of DCM, MeCN, MTBE, THF, MeOH, EtOAc or toluene at reflux) is given as “has not been dissolved in all these solvents at reflux except for THE”. The solubility in data set [2] (solvent 2-MeTHF) was 5 mg/mL (≈ 11.2 mM); in data set [2] (solvent DMAC) it was above 200 mg/mL; in data set [2] (solvent DMF), above 100 mg/mL; in data set [2] (solvent DMSO), above 100 mg/mL; in data set [2] (solvent HFIP), 94 mg/mL (≈ 210 mM); in data set [2] (solvent MeCN), 2 mg/mL (≈ 4.47 mM). The solubility in data set [2] (solvent NMP) is above 100 mg/mL; in data set [2] (solvent TFE), 79 mg/mL (≈ 176 mM); in data set [2] (solvent THE), 31 mg/mL (≈ 69.2 mM).

Usually solubility stands for the dissolved amount per volume that the medium holds.
